In ChEMBL document CHEMBL4507295 (2021):

Assays:
[1] = molecular target: Serine/threonine-protein kinase ULK3 (Homo sapiens) (UniProt Q6PHR2); conditions: Compound concentration 1000.0 nM
[2] = molecular target: Receptor-type tyrosine-protein kinase FLT3 (Homo sapiens) (UniProt P36888); conditions: Compound concentration 1000.0 nM
[3] = molecular target: Hormonally up-regulated neu tumor-associated kinase (Homo sapiens) (UniProt P57058); conditions: Compound concentration 1000.0 nM
[4] = test system: Phosphatidylinositol 4,5-bisphosphate 3-kinase catalytic subunit alpha isoform (Homo sapiens), P42336 [M1043I]; conditions: Compound concentration 1000.0 nM
[5] = molecular target: Serine/threonine-protein kinase D2 (Homo sapiens) (UniProt Q9BZL6); conditions: Compound concentration 1000.0 nM
[6] = molecular target: Homeodomain-interacting protein kinase 3 (Homo sapiens) (UniProt Q9H422); conditions: Compound concentration 1000.0 nM
[7] = molecular target: Serine/threonine-protein kinase DCLK1 (Homo sapiens) (UniProt O15075); conditions: Compound concentration 1000.0 nM
[8] = test system: Hepatocyte growth factor receptor (Homo sapiens), P08581 [M1250T]; conditions: Compound concentration 1000.0 nM
[9] = molecular target: Mitogen-activated protein kinase kinase kinase 3 (Homo sapiens) (UniProt Q99759); conditions: Compound concentration 1000.0 nM
[10] = molecular target: Mitogen-activated protein kinase kinase kinase 19 (Homo sapiens) (UniProt Q56UN5); conditions: Compound concentration 1000.0 nM
[11] = molecular target: Casein kinase I isoform epsilon (Homo sapiens) (UniProt P49674); conditions: Compound concentration 1000.0 nM
[12] = test system: Tyrosine-protein kinase ABL1 (Homo sapiens), P00519 [F317L]; conditions: Compound concentration 1000.0 nM
Sequence of Tyrosine-protein kinase ABL1 (Homo sapiens), P00519 [F317L] (P00519 whole entry F317L): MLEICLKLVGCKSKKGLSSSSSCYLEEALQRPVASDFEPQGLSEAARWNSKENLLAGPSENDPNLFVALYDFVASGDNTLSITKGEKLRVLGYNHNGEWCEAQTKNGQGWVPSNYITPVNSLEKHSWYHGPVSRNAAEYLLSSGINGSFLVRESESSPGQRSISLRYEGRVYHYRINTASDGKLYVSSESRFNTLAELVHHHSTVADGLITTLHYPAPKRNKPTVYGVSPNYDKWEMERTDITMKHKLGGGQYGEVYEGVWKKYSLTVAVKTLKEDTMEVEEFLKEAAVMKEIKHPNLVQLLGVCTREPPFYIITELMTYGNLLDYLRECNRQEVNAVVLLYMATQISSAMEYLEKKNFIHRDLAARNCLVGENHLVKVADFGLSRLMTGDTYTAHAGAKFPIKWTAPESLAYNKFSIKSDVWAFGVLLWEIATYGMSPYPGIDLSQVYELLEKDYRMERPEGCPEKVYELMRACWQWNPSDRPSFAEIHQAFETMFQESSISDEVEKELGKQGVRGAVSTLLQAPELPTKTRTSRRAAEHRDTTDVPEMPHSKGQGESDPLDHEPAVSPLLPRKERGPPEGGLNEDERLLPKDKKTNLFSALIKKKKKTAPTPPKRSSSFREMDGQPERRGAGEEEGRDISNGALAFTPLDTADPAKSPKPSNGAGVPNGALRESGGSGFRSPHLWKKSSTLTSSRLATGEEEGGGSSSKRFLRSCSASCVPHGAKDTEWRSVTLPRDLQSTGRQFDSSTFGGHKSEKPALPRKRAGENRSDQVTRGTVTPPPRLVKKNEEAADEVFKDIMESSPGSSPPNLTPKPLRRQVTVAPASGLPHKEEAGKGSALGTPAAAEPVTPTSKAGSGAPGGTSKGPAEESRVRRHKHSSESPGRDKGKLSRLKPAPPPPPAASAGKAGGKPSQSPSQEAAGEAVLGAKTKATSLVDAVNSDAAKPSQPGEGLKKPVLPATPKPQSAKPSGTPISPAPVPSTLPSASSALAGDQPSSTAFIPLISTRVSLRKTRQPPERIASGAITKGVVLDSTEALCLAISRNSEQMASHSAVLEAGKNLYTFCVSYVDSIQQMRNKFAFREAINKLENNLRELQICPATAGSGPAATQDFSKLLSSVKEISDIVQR

[13] = molecular target: Protein kinase C iota type (Homo sapiens) (UniProt P41743); conditions: Compound concentration 1000.0 nM
[14] = molecular target: Mitogen-activated protein kinase 1 (Homo sapiens) (UniProt P28482); conditions: Compound concentration 1000.0 nM
[15] = molecular target: Cyclin-dependent kinase 11A (Homo sapiens) (UniProt Q9UQ88); conditions: Compound concentration 1000.0 nM
Sequence of Cyclin-dependent kinase 11A (Homo sapiens) (Q9UQ88 whole entry): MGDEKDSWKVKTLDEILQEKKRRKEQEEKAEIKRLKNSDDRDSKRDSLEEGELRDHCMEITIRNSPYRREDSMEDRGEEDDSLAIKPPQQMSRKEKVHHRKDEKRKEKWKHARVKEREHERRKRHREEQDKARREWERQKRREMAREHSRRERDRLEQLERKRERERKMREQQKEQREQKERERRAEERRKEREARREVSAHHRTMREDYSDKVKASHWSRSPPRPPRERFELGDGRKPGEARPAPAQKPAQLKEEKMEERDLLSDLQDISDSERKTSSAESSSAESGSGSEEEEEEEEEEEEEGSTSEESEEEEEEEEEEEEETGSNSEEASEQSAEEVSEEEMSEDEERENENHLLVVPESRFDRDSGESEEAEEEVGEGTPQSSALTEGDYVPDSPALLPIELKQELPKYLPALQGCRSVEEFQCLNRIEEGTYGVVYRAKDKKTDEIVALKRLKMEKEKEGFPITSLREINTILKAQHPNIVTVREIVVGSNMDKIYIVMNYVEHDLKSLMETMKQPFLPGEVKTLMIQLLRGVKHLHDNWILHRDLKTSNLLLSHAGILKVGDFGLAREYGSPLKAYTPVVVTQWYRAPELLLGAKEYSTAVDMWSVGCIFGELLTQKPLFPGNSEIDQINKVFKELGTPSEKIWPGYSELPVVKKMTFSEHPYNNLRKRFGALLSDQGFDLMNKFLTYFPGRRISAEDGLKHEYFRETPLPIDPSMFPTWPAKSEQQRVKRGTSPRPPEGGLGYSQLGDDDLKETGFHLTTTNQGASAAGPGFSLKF

[16] = molecular target: Ribosomal protein S6 kinase alpha-1 (Homo sapiens) (UniProt Q15418); conditions: Compound concentration 1000.0 nM
[17] = molecular target: Mitogen-activated protein kinase kinase kinase 2 (Homo sapiens) (UniProt Q9Y2U5); conditions: Compound concentration 1000.0 nM
[18] = molecular target: Tyrosine-protein kinase ITK/TSK (Homo sapiens) (UniProt Q08881); conditions: Compound concentration 1000.0 nM
[19] = molecular target: Ephrin type-B receptor 2 (Homo sapiens) (UniProt P29323); conditions: Compound concentration 1000.0 nM
[20] = molecular target: Serine/threonine-protein kinase 38 (Homo sapiens) (UniProt Q15208); conditions: Compound concentration 1000.0 nM
Sequence of Serine/threonine-protein kinase 38 (Homo sapiens) (Q15208 2-465 limits assumed): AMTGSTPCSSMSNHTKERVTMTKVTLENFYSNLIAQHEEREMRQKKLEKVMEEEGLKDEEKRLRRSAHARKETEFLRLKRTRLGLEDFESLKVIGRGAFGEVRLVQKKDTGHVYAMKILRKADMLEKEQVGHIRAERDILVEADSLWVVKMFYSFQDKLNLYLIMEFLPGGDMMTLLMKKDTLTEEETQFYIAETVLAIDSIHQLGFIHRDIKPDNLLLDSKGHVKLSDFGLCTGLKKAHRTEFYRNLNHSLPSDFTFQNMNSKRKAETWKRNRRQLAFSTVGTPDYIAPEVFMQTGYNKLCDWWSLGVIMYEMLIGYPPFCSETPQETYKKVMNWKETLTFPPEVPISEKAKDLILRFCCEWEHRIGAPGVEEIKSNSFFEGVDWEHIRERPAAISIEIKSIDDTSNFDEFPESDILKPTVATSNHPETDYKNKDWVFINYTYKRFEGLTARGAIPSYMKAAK

[21] = test system: Mast/stem cell growth factor receptor Kit (Homo sapiens), P10721 [L576P]; conditions: Compound concentration 1000.0 nM
[22] = molecular target: Protein-tyrosine kinase 2-beta (Homo sapiens) (UniProt Q14289); conditions: Compound concentration 1000.0 nM
[23] = molecular target: Cyclin-dependent kinase 11B (Homo sapiens) (UniProt P21127); conditions: Compound concentration 1000.0 nM
[24] = species on record: Rattus norvegicus; conditions: Compound concentration 10.0 uM
[25] = molecular target: Phosphatidylinositol 4,5-bisphosphate 3-kinase catalytic subunit delta isoform (Homo sapiens) (UniProt O00329); conditions: Compound concentration 1000.0 nM
Sequence of Phosphatidylinositol 4,5-bisphosphate 3-kinase catalytic subunit delta isoform (Homo sapiens) (O00329 whole entry, canonical isoform): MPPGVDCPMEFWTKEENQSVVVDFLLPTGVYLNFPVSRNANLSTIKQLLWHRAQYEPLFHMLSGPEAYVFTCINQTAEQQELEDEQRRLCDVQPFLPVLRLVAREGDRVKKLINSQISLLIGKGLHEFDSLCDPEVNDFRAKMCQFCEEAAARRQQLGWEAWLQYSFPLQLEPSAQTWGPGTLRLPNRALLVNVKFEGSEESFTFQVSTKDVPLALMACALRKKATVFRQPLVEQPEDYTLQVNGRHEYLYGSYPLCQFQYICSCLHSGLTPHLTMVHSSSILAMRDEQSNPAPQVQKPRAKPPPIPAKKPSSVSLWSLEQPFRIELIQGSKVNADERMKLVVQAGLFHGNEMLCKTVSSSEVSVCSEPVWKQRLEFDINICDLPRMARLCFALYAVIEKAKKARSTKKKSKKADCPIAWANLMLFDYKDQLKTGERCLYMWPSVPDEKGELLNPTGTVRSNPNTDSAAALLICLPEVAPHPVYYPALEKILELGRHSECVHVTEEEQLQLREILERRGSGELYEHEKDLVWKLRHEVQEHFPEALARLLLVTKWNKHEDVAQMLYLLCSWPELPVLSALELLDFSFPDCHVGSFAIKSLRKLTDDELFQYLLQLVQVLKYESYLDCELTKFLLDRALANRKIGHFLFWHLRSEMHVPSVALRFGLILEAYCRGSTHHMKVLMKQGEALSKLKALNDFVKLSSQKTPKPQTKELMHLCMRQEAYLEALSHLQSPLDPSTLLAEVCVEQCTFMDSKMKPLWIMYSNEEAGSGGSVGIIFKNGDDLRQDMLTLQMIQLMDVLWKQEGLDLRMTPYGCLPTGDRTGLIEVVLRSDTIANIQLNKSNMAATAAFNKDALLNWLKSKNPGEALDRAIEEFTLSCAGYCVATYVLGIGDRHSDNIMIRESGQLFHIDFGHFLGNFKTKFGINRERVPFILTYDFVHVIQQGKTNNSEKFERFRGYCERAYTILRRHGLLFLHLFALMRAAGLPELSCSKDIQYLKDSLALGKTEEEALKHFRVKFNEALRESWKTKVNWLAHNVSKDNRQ

[26] = molecular target: Ephrin type-A receptor 4 (Homo sapiens) (UniProt P54764); conditions: Compound concentration 1000.0 nM
Sequence of Ephrin type-A receptor 4 (Homo sapiens) (P54764 whole entry): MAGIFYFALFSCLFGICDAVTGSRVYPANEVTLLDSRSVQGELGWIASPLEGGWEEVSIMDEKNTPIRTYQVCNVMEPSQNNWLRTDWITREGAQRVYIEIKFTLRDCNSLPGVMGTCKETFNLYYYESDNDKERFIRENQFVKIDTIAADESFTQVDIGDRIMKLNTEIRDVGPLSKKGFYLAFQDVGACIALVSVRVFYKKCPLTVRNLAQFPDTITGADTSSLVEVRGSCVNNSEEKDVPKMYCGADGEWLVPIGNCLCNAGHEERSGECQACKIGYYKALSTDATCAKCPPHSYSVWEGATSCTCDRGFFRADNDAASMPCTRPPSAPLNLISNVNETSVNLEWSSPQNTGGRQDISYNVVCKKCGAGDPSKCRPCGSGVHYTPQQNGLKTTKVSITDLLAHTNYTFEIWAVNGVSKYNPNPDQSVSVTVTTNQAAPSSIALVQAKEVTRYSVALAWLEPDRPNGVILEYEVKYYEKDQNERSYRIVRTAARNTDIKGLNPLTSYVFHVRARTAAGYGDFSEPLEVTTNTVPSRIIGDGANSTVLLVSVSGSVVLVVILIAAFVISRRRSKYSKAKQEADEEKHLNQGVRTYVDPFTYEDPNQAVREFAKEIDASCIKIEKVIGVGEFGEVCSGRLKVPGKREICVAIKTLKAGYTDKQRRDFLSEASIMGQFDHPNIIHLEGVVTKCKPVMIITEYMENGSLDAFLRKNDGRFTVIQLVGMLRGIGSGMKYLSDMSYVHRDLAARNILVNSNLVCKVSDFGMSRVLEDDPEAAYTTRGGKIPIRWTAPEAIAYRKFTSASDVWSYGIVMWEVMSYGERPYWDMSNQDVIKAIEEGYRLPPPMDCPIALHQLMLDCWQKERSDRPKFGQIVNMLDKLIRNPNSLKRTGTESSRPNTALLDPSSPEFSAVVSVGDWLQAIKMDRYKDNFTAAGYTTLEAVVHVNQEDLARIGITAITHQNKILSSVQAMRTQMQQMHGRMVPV

[27] = molecular target: Macrophage colony-stimulating factor 1 receptor (Homo sapiens) (UniProt P07333); conditions: Compound concentration 1000.0 nM
[28] = molecular target: Dual specificity protein kinase CLK3 (Homo sapiens) (UniProt P49761); conditions: Compound concentration 1000.0 nM
[29] = molecular target: Inhibitor of nuclear factor kappa-B kinase subunit alpha (Homo sapiens) (UniProt O15111); conditions: Compound concentration 1000.0 nM
[30] = molecular target: SRSF protein kinase 1 (Homo sapiens) (UniProt Q96SB4); conditions: Compound concentration 1000.0 nM
[31] = molecular target: Serine/threonine-protein kinase MAK (Homo sapiens) (UniProt P20794); conditions: Compound concentration 1000.0 nM
Sequence of Serine/threonine-protein kinase MAK (Homo sapiens) (P20794 whole entry): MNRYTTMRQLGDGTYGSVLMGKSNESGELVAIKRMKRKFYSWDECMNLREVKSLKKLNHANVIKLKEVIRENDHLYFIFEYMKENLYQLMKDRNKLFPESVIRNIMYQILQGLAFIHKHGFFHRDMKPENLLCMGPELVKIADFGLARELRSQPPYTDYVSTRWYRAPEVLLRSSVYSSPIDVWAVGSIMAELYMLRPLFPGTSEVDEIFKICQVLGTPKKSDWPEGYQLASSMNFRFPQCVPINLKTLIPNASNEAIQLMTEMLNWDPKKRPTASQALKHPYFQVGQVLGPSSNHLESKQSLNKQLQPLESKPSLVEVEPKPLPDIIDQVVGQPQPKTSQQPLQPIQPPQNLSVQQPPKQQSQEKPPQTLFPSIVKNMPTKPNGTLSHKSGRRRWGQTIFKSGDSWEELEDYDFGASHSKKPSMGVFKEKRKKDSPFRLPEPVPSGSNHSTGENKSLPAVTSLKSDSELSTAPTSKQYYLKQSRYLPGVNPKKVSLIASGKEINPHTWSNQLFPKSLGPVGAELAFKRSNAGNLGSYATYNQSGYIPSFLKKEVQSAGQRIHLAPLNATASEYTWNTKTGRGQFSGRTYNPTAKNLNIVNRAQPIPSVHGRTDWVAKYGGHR

[32] = molecular target: Mitogen-activated protein kinase kinase kinase 15 (Homo sapiens) (UniProt Q6ZN16); conditions: Compound concentration 1000.0 nM
[33] = molecular target: Serine/threonine-protein kinase B-raf (Homo sapiens) (UniProt P15056); conditions: Compound concentration 1000.0 nM
[34] = molecular target: Serine/threonine-protein kinase 24 (Homo sapiens) (UniProt Q9Y6E0); conditions: Compound concentration 1000.0 nM
[35] = molecular target: Serine/threonine-protein kinase TAO2 (Homo sapiens) (UniProt Q9UL54); conditions: Compound concentration 1000.0 nM
[36] = molecular target: Serine/threonine-protein kinase 16 (Homo sapiens) (UniProt O75716); conditions: Compound concentration 1000.0 nM
[37] = molecular target: Casein kinase I isoform delta (Homo sapiens) (UniProt P48730); conditions: Compound concentration 1000.0 nM
[38] = test system: Tyrosine-protein kinase ABL1 (Homo sapiens), P00519 [F317L]; conditions: Compound concentration 1000.0 nM; remark: listed apart in the source
[39] = molecular target: Beta-2 adrenergic receptor (Homo sapiens) (UniProt P07550); conditions: Compound concentration 10.0 uM
[40] = test system: ALK tyrosine kinase receptor (Homo sapiens), Q9UM73 [L1196M]; conditions: Compound concentration 1000.0 nM
[41] = molecular target: Cyclin-dependent kinase 15 (Homo sapiens) (UniProt Q96Q40); conditions: Compound concentration 1000.0 nM
[42] = molecular target: Serine/threonine-protein kinase Sgk2 (Homo sapiens) (UniProt Q9HBY8); conditions: Compound concentration 1000.0 nM
[43] = molecular target: Ephrin type-A receptor 3 (Homo sapiens) (UniProt P29320); conditions: Compound concentration 1000.0 nM
[44] = molecular target: Inhibitor of nuclear factor kappa-B kinase subunit epsilon (Homo sapiens) (UniProt Q14164); conditions: Compound concentration 1000.0 nM
[45] = molecular target: Homeodomain-interacting protein kinase 2 (Homo sapiens) (UniProt Q9H2X6); conditions: Compound concentration 1000.0 nM

N#CC1(c2ccccn2)CCN(Cc2cc(C(=O)N3CCCC3)c(=O)n3ccccc23)CC1
inactive: residual activity [1] 96% | residual activity [2] 86% | residual activity [3] 79% | residual activity [4] 72% | residual activity [5] 85% | residual activity [6] 97% | residual activity [7] 91% | residual activity [8] 80% | residual activity [9] 92% | residual activity [10] 100% | residual activity [11] 100% | residual activity [12] 92% | residual activity [13] 87% | residual activity [14] 98% | residual activity [15] 93% | residual activity [16] 100% | residual activity [17] 100% | residual activity [18] 95% | residual activity [19] 77% | residual activity [20] 64% | residual activity [21] 100% | residual activity [22] 86% | residual activity [23] 80% | inhibition [24] 46.5% | residual activity [25] 61% | residual activity [26] 89% | residual activity [27] 94% | residual activity [28] 99% | residual activity [29] 94% | residual activity [30] 85% | residual activity [31] 93% | residual activity [32] 100% | residual activity [33] 100% | residual activity [34] 87% | residual activity [35] 100% | residual activity [36] 100% | residual activity [37] 74% | residual activity [38] 100% | inhibition [39] 15.8% | residual activity [40] 100% | residual activity [41] 85% | residual activity [42] 100% | residual activity [43] 100% | residual activity [44] 94% | residual activity [45] 100%

N#CC1(c2ccccn2)CCN(Cc2cc(C(=O)O)c(=O)n3ccccc23)CC1 [MSD-M1PAM]
inactive: residual activity [1] 89% | residual activity [2] 85% | residual activity [3] 100% | residual activity [4] 91% | residual activity [5] 99% | residual activity [6] 84% | residual activity [7] 100% | residual activity [8] 96% | residual activity [9] 77% | residual activity [10] 77% | residual activity [11] 100% | residual activity [12] 57% | residual activity [13] 100% | residual activity [14] 100% | residual activity [15] 100% | residual activity [16] 94% | residual activity [17] 76% | residual activity [18] 100% | residual activity [19] 100% | residual activity [20] 93% | residual activity [21] 100% | residual activity [22] 100% | residual activity [23] 100% | inhibition [24] 7.88% | residual activity [25] 91% | residual activity [26] 79% | residual activity [27] 95% | residual activity [28] 100% | residual activity [29] 100% | residual activity [30] 100% | residual activity [31] 97% | residual activity [32] 100% | residual activity [33] 93% | residual activity [34] 100% | residual activity [35] 97% | residual activity [36] 100% | residual activity [37] 96% | residual activity [38] 84% | inhibition [39] 13.9% | residual activity [40] 100% | residual activity [41] 100% | residual activity [42] 86% | residual activity [43] 75% | residual activity [44] 88% | residual activity [45] 66%
